In PubChem BioAssay (NCI):
Several values for one entry are separate records, joined by “and”; a condition that tells them apart may be missing. Equal values may be shown once.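 Where inhibition never reached the appropriate level, the endpoint shown equals the highest concentration tested. Otherwise, values were interpolated linearly from a five-concentration, 48-hour dose response in 96-well plates. GI50: concentration for 50% inhibition of growth. TGI: concentration producing complete growth inhibition.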

What was measured:
Test in all cases: inhibition of tumour cell growth, NCI panel, 48 h
[1] = tested on: CCRF-CEM leukemia
[2] = tested on: HCT-15 colon
[3] = tested on: LOX IMVI melanoma
[4] = tested on: OVCAR-3 ovarian
[5] = tested on: OVCAR-4 ovarian
[6] = tested on: SK-MEL-28 melanoma
[7] = tested on: SK-OV-3 ovarian
[8] = tested on: SNB-19 CNS
[9] = tested on: U251 CNS
[10] = tested on: UACC-62 melanoma

NCc1c(C(N)=O)ncn1Cc1ccccc1
TGI [1]: > 100 µM | TGI [2]: > 100 µM | TGI [3]: > 100 µM | TGI [4]: > 100 µM | TGI [5]: > 100 µM | TGI [6]: > 100 µM | TGI [7]: > 100 µM | TGI [8]: > 100 µM | TGI [9]: > 100 µM | TGI [10]: > 100 µM

CCOC(=O)C(C(=O)OCC)C(=O)c1ccccc1C(=O)c1ccccc1
TGI [1]: > 100 µM | TGI [2]: > 100 µM | TGI [3]: > 100 µM | TGI [4]: > 100 µM | TGI [5]: > 100 µM | TGI [7]: > 100 µM | TGI [8]: > 100 µM | TGI [9]: > 100 µM | TGI [10]: > 100 µM

CCOC(=O)N1C(c2ccccc2)C=CC(c2ccccc2)N1C(=O)OCC (stereo not drawn)
TGI [1]: > 100 µM | TGI [2]: > 100 µM | TGI [3]: > 100 µM | TGI [4]: > 100 µM | TGI [5]: > 100 µM | TGI [6]: > 100 µM | TGI [8]: > 100 µM | TGI [9]: > 100 µM | TGI [10]: > 100 µM

N#Cc1ccc(Oc2cccc(Oc3ccccc3)c2)cc1C#N
TGI [1]: > 100 µM | TGI [4]: > 100 µM | TGI [5]: > 100 µM | TGI [6]: > 100 µM | GI50 [7]: > 100 µM | TGI [7]: > 100 µM | TGI [8]: > 100 µM | TGI [9]: > 100 µM | GI50 [10]: > 100 µM | TGI [10]: > 100 µM

O=C(Nc1nc2ccc([N+](=O)[O-])cc2s1)C(=O)C(C(=O)c1ccncc1)C1OC(=O)c2ccccc21 (stereo not drawn)
TGI [1]: > 100 µM | TGI [2]: > 100 µM | TGI [4]: > 100 µM | TGI [5]: > 100 µM | TGI [8]: > 100 µM | TGI [9]: > 100 µM | TGI [10]: > 100 µM

CC(=O)[O-].[Zn].c1ccc(/C(=N\Nc2ccccn2)c2ccccn2)cc1
TGI [1]: 0.22 µM and 1.22 µM | TGI [2]: 11.6 µM | GI50 [3]: 0.32 µM | TGI [3]: 1.59 µM | TGI [5]: 18.1 µM | GI50 [7]: 0.507 µM | TGI [7]: 2.79 µM | TGI [8]: 5.73 µM | GI50 [9]: 0.482 µM | TGI [9]: 1.88 µM | GI50 [10]: 0.0476 µM | TGI [10]: 0.67 µM and 1.17 µM

COc1nc2c(nc(N)n2C2OCC(O)C(O)C2O)c(=O)n1C (stereo not drawn)
TGI [1]: > 100 µM | TGI [3]: > 100 µM | TGI [4]: > 100 µM | TGI [5]: > 100 µM | TGI [6]: > 100 µM | TGI [7]: > 100 µM | TGI [8]: > 100 µM | TGI [9]: > 100 µM | TGI [10]: > 100 µM

C=C1CCCC2[C@](C)(CC3=C(O)C(=O)C=C(OC)C3=O)[C@@H](C)CC[C@]12C (stereo partly drawn)
TGI [1]: 14.6 µM | TGI [2]: 49.6 µM | TGI [3]: > 100 µM | TGI [4]: 31.3 µM | TGI [5]: 78.2 µM | TGI [6]: > 100 µM | TGI [7]: 62.2 µM | TGI [9]: > 100 µM | TGI [10]: 6.63 µM

O=c1cccccc1[O-].O=c1cccccc1[O-].O=c1cccccc1[O-].[Ce+3]
TGI [1]: > 100 µM | TGI [2]: > 100 µM | TGI [3]: > 100 µM | TGI [4]: 35.5 µM | TGI [5]: 76.7 µM | TGI [7]: 72.3 µM | TGI [8]: > 100 µM | GI50 [9]: 18.3 µM | TGI [9]: 93.6 µM | TGI [10]: 40.4 µM

Cn1ccnc1CCc1ccc(Cl)c(Cl)c1
TGI [1]: > 100 µM | TGI [2]: > 100 µM | TGI [3]: > 100 µM | TGI [4]: > 100 µM | TGI [5]: > 100 µM | TGI [6]: > 100 µM | TGI [7]: > 100 µM | TGI [9]: > 100 µM | TGI [10]: > 100 µM

COc1ccc(-c2ccc(-c3ccc(C(=N)N)cn3)o2)cc1Cl
GI50 [1]: 1.42 µM | TGI [1]: 3.78 µM | GI50 [2]: 1.73 µM | TGI [2]: 3.38 µM | GI50 [4]: 2.24 µM | TGI [4]: 4.79 µM | GI50 [5]: 2.58 µM | TGI [5]: 7.75 µM | GI50 [6]: 1.69 µM | TGI [6]: 3.22 µM | GI50 [7]: 10.6 µM | TGI [7]: 22.8 µM | GI50 [8]: 1.79 µM | TGI [8]: 3.4 µM | GI50 [9]: 1.79 µM | TGI [9]: 3.53 µM

CCOC(=O)C(C)(C)Oc1ccc2c(-c3ccc(Cl)cc3)c(-c3ccc(Cl)cc3)c(=O)oc2c1
TGI [1]: > 100 µM | TGI [2]: > 100 µM | TGI [3]: > 100 µM | TGI [4]: > 100 µM | TGI [5]: > 100 µM | TGI [6]: > 100 µM | TGI [8]: > 100 µM | TGI [9]: > 100 µM | TGI [10]: > 100 µM

CC(=O)OC1CCC2C(=CCC3C2(C)C(=O)CC2(C)C(C4(C)OC(C(C)C)=CC4=O)C(O)CC32C)C1(C)C (stereo not drawn)
TGI [1]: 56.5 µM | TGI [2]: > 100 µM | TGI [4]: > 10 µM | TGI [7]: > 100 µM | TGI [8]: > 100 µM | TGI [9]: > 100 µM | TGI [10]: 41.7 µM

CC(=O)/C=C1\CC(=O)Nc2ccccc2N1
TGI [1]: > 100 µM | TGI [2]: > 100 µM | TGI [3]: > 100 µM | TGI [5]: > 100 µM | TGI [6]: > 100 µM | TGI [7]: > 100 µM | TGI [8]: > 100 µM | TGI [9]: > 100 µM | TGI [10]: > 100 µM

O=C(NC1C2CC3CC(C2)CC1C3)/C(Cl)=C1/Sc2ccccc2NC1=O (stereo not drawn)
TGI [1]: > 100 µM | TGI [2]: > 100 µM | TGI [3]: > 100 µM | TGI [4]: > 100 µM | TGI [5]: > 100 µM | TGI [6]: > 100 µM | TGI [8]: > 100 µM | TGI [9]: > 100 µM | TGI [10]: > 100 µM

O=C(O)c1ccccc1N=Nc1ccc2oc(=O)c(C(=O)Nc3ccccc3)cc2c1
TGI [1]: > 100 µM | TGI [2]: > 100 µM | TGI [3]: > 100 µM | TGI [4]: 70.4 µM | TGI [6]: > 100 µM | TGI [7]: > 100 µM | TGI [8]: > 100 µM | TGI [9]: > 100 µM | TGI [10]: 71.1 µM
